Measured values taken from the supplement of paper PMC10733146.

What was measured:
Test in all cases: viability relative to DMSO control (fraction); higher = less drug effect (more viable cells)
Conditions in all cases: 48 h
[1] = system: primary AML patient cells (S056)
Method in brief: (§1)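 Cells were incubated for 48 h at 37 °C and 5% CO2 in RPMI-1640 with penicillin/streptomycin, L-glutamine and human serum, at 4 × 10^4 cells per well in 384-well plates with compounds pre-plated at five concentrations, one well each. These were primary mononuclear tumour cells, fresh or cryopreserved, Ficoll-isolated from blood or bone marrow or obtained from processed lymph node. Viability values are CellTiter-Glo luminescence relative to the median of 16 inner DMSO wells.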

[2] = system: primary AML patient cells (S072)
Method in brief: as §1

[3] = system: primary AML patient cells (S071)
Method in brief: as §1

[4] = system: primary FL patient cells (S087)
Method in brief: as §1

[5] = system: primary MCL patient cells (S068)
Method in brief: as §1

[6] = system: primary B-PLL patient cells (S016)
Method in brief: as §1

[7] = system: primary MCL patient cells (S053)
Method in brief: as §1

[8] = system: primary FL patient cells (S022)
Method in brief: as §1

[9] = system: primary MCL patient cells (S063)
Method in brief: as §1

[10] = system: primary MCL patient cells (S041)
Method in brief: as §1

[11] = system: primary AML patient cells (S009)
Method in brief: as §1

[12] = system: primary CLL patient cells (S031)
Method in brief: as §1

[13] = system: primary ALL patient cells (S048)
Method in brief: as §1

[14] = system: primary AML patient cells (S055)
Method in brief: as §1

[15] = system: primary T-PLL patient cells (S008)
Method in brief: as §1

[16] = system: primary DLBCL patient cells (S082)
Method in brief: as §1

[17] = system: primary AML patient cells (S060)
Method in brief: as §1

[18] = system: primary ALL patient cells (S088)
Method in brief: as §1

[19] = system: primary AML patient cells (S079)
Method in brief: as §1

[20] = system: primary BL patient cells (S005)
Method in brief: as §1

Nc1nc(F)nc2c1ncn2[C@@H]1O[C@H](CO)[C@@H](O)[C@@H]1O [Fludarabine]
viability ([1]; 0.016 µM): 1.3 | viability ([1]; 0.08 µM): 0.88 | viability ([1]; 0.4 µM): 0.725 | viability ([1]; 2 µM): 0.208 | viability ([1]; 10 µM): 0.0833 | viability ([2]; 0.016 µM): 1.02 | viability ([2]; 0.08 µM): 1.08 | viability ([2]; 0.4 µM): 0.824 | viability ([2]; 2 µM): 0.724 | viability ([2]; 10 µM): 0.529 | viability ([3]; 0.016 µM): 0.997 | viability ([3]; 0.08 µM): 0.973 | viability ([3]; 0.4 µM): 0.491 | viability ([3]; 2 µM): 0.195 | viability ([3]; 10 µM): 0.135 | viability ([4]; 0.016 µM): 1 | viability ([4]; 0.08 µM): 0.979 | viability ([4]; 0.4 µM): 0.871 | viability ([4]; 2 µM): 0.661 | viability ([4]; 10 µM): 0.463 | viability ([5]; 0.016 µM): 1.01 | viability ([5]; 0.08 µM): 0.961 | viability ([5]; 0.4 µM): 0.804 | viability ([5]; 2 µM): 0.463 | viability ([5]; 10 µM): 0.194 | viability ([6]; 0.016 µM): 1.08 | viability ([6]; 0.08 µM): 1.01 | viability ([6]; 0.4 µM): 0.929 | viability ([6]; 2 µM): 0.535 | viability ([6]; 10 µM): 0.0968 | viability ([7]; 0.016 µM): 1.02 | viability ([7]; 0.08 µM): 0.928 | viability ([7]; 0.4 µM): 0.638 | viability ([7]; 2 µM): 0.238 | viability ([7]; 10 µM): 0.156 | viability ([8]; 0.016 µM): 1.09 | viability ([8]; 0.08 µM): 1.01 | viability ([8]; 0.4 µM): 0.916 | viability ([8]; 2 µM): 0.757 | viability ([8]; 10 µM): 0.504 | viability ([9]; 0.016 µM): 1.03 | viability ([9]; 0.08 µM): 1 | viability ([9]; 0.4 µM): 0.983 | viability ([9]; 2 µM): 0.845 | viability ([9]; 10 µM): 0.196 | viability ([10]; 0.016 µM): 1.05 | viability ([10]; 0.08 µM): 1.01 | viability ([10]; 0.4 µM): 0.993 | viability ([10]; 2 µM): 0.647 | viability ([10]; 10 µM): 0.149 | viability ([11]; 0.016 µM): 0.952 | viability ([11]; 0.08 µM): 0.86 | viability ([11]; 0.4 µM): 0.59 | viability ([11]; 2 µM): 0.402 | viability ([11]; 10 µM): 0.359 | viability ([12]; 0.016 µM): 1.05 | viability ([12]; 0.08 µM): 1.02 | viability ([12]; 0.4 µM): 0.779 | viability ([12]; 2 µM): 0.276 | viability ([12]; 10 µM): 0.0672 | viability ([13]; 0.016 µM): 0.991 | viability ([13]; 0.08 µM): 0.881 | viability ([13]; 0.4 µM): 0.337 | viability ([13]; 2 µM): 0.0558 | viability ([13]; 10 µM): 0.028 | viability ([14]; 0.016 µM): 1.05 | viability ([14]; 0.08 µM): 0.976 | viability ([14]; 0.4 µM): 0.937 | viability ([14]; 2 µM): 0.624 | viability ([14]; 10 µM): 0.256 | viability ([15]; 0.016 µM): 0.988 | viability ([15]; 0.08 µM): 1.02 | viability ([15]; 0.4 µM): 0.942 | viability ([15]; 2 µM): 0.761 | viability ([15]; 10 µM): 0.373 | viability ([16]; 0.016 µM): 1.03 | viability ([16]; 0.08 µM): 0.94 | viability ([16]; 0.4 µM): 0.908 | viability ([16]; 2 µM): 0.588 | viability ([16]; 10 µM): 0.429 | viability ([17]; 0.016 µM): 1.02 | viability ([17]; 0.08 µM): 1.01 | viability ([17]; 0.4 µM): 1.06 | viability ([17]; 2 µM): 1.03 | viability ([17]; 10 µM): 0.89 | viability ([18]; 0.016 µM): 1 | viability ([18]; 0.08 µM): 0.975 | viability ([18]; 0.4 µM): 0.715 | viability ([18]; 2 µM): 0.283 | viability ([18]; 10 µM): 0.2 | viability ([19]; 0.016 µM): 1.05 | viability ([19]; 0.08 µM): 1.01 | viability ([19]; 0.4 µM): 0.819 | viability ([19]; 2 µM): 0.453 | viability ([19]; 10 µM): 0.191 | viability ([20]; 0.016 µM): 0.972 | viability ([20]; 0.08 µM): 1.18 | viability ([20]; 0.4 µM): 0.943 | viability ([20]; 2 µM): 0.905 | viability ([20]; 10 µM): 1.05

CC(C)c1cc(-c2n[nH]c(=O)n2-c2ccc3c(ccn3C)c2)c(O)cc1O [Ganetespib]
viability ([1]; 0.0032 µM): 0.705 | viability ([1]; 0.016 µM): 0.203 | viability ([1]; 0.08 µM): 0.137 | viability ([1]; 0.4 µM): 0.176 | viability ([1]; 2 µM): 0.169 | viability ([2]; 0.0032 µM): 1.01 | viability ([2]; 0.016 µM): 0.884 | viability ([2]; 0.08 µM): 0.412 | viability ([2]; 0.4 µM): 0.39 | viability ([2]; 2 µM): 0.377 | viability ([3]; 0.0032 µM): 0.892 | viability ([3]; 0.016 µM): 0.357 | viability ([3]; 0.08 µM): 0.142 | viability ([3]; 0.4 µM): 0.167 | viability ([3]; 2 µM): 0.164 | viability ([4]; 0.0032 µM): 1.01 | viability ([4]; 0.016 µM): 1.01 | viability ([4]; 0.08 µM): 0.853 | viability ([4]; 0.4 µM): 0.881 | viability ([4]; 2 µM): 0.848 | viability ([5]; 0.0032 µM): 1.02 | viability ([5]; 0.016 µM): 1.13 | viability ([5]; 0.08 µM): 0.532 | viability ([5]; 0.4 µM): 0.535 | viability ([5]; 2 µM): 0.545 | viability ([6]; 0.0032 µM): 1.03 | viability ([6]; 0.016 µM): 0.967 | viability ([6]; 0.08 µM): 0.569 | viability ([6]; 0.4 µM): 0.552 | viability ([6]; 2 µM): 0.514 | viability ([7]; 0.0032 µM): 0.941 | viability ([7]; 0.016 µM): 0.809 | viability ([7]; 0.08 µM): 0.326 | viability ([7]; 0.4 µM): 0.332 | viability ([7]; 2 µM): 0.325 | viability ([8]; 0.0032 µM): 0.919 | viability ([8]; 0.016 µM): 0.865 | viability ([8]; 0.08 µM): 0.833 | viability ([8]; 0.4 µM): 0.764 | viability ([8]; 2 µM): 0.727 | viability ([9]; 0.0032 µM): 1 | viability ([9]; 0.016 µM): 1.05 | viability ([9]; 0.08 µM): 0.136 | viability ([9]; 0.4 µM): 0.0898 | viability ([9]; 2 µM): 0.0823 | viability ([10]; 0.0032 µM): 0.98 | viability ([10]; 0.016 µM): 0.846 | viability ([10]; 0.08 µM): 0.533 | viability ([10]; 0.4 µM): 0.406 | viability ([10]; 2 µM): 0.404 | viability ([11]; 0.0032 µM): 0.953 | viability ([11]; 0.016 µM): 0.743 | viability ([11]; 0.08 µM): 0.542 | viability ([11]; 0.4 µM): 0.56 | viability ([11]; 2 µM): 0.567 | viability ([12]; 0.0032 µM): 0.998 | viability ([12]; 0.016 µM): 0.873 | viability ([12]; 0.08 µM): 0.324 | viability ([12]; 0.4 µM): 0.267 | viability ([12]; 2 µM): 0.256 | viability ([13]; 0.0032 µM): 0.9 | viability ([13]; 0.016 µM): 0.632 | viability ([13]; 0.08 µM): 0.517 | viability ([13]; 0.4 µM): 0.48 | viability ([13]; 2 µM): 0.453 | viability ([14]; 0.0032 µM): 0.976 | viability ([14]; 0.016 µM): 0.928 | viability ([14]; 0.08 µM): 0.403 | viability ([14]; 0.4 µM): 0.368 | viability ([14]; 2 µM): 0.337 | viability ([15]; 0.0032 µM): 0.937 | viability ([15]; 0.016 µM): 1 | viability ([15]; 0.08 µM): 0.939 | viability ([15]; 0.4 µM): 0.988 | viability ([15]; 2 µM): 0.961 | viability ([16]; 0.0032 µM): 1.02 | viability ([16]; 0.016 µM): 1.12 | viability ([16]; 0.08 µM): 1.09 | viability ([16]; 0.4 µM): 1.04 | viability ([16]; 2 µM): 1.02 | viability ([17]; 0.0032 µM): 0.97 | viability ([17]; 0.016 µM): 1.05 | viability ([17]; 0.08 µM): 0.154 | viability ([17]; 0.4 µM): 0.118 | viability ([17]; 2 µM): 0.107 | viability ([18]; 0.0032 µM): 0.823 | viability ([18]; 0.016 µM): 0.425 | viability ([18]; 0.08 µM): 0.274 | viability ([18]; 0.4 µM): 0.259 | viability ([18]; 2 µM): 0.267 | viability ([19]; 0.0032 µM): 0.983 | viability ([19]; 0.016 µM): 0.825 | viability ([19]; 0.08 µM): 0.398 | viability ([19]; 0.4 µM): 0.352 | viability ([19]; 2 µM): 0.332 | viability ([20]; 0.0032 µM): 0.871 | viability ([20]; 0.016 µM): 0.871 | viability ([20]; 0.08 µM): 0.637 | viability ([20]; 0.4 µM): 0.725 | viability ([20]; 2 µM): 0.716
